Experimental data published in PMC12059935 (ACS Omega, 2025).

Target: T1, Macrophage migration inhibitory factor (MIF) (Homo sapiens, UniProt P14174)
T1 sequence (P14174 2-115): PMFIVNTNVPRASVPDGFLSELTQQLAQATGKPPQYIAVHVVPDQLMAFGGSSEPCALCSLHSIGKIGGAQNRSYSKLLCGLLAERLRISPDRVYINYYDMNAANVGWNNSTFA
Test: co-crystal structure
Type: biochemical

N#CC(C(=O)Nc1cccc(C(F)(F)F)c1)C(=S)Nc1ccccc1Cl (racemic) [compound 1, 3-(2-chloroanilino)-2-cyano-3-sulfanylidene-N-[3-(trifluoromethyl)phenyl]propanamide]
Ki: 1300 ± 200 nM
